Measured values as given in patent publication US9352010B2, “Treatment of HIV-1 infection and AIDS” (The J. David Gladstone Institutes, priority 2011, dated 2016).
Entries after “also recorded” stand apart in the source; their conditions may differ.

Legend:
[1] = tested on: CFSE-labeled spleen CD4 T-cells; assay: Indirect killing assay with CFSE-labeled human spleen cells; assay type: cell-based; conditions: for loss of CFSE-labeled spleen CD4 T-cells: HIV-infected spleen HLAC effectors; for loss of resting CFSE-labeled spleen CD4 T-cells: HIV-infected tonsil effector cells
Method: (B and C) Fresh human spleen from a single donor were processed into HLAC and assessed in indirect cell killing assay as described in FIG. 2A. Effector spleen HLAC were stimulated with PHA and IL-2 48 hours before mixing, but not during co-culturing with CFSE-labeled cells. Non-activated resting CFSE-labeled spleen cells were co-cultured with NL4-3-infected or uninfected effector cells in the presence or absence of the following drugs, AZT (5 μM), AMD3100 (250 nM), Efavirenz (100 nM), or Raltegravir (30 μM), as indicated. […] Percentages were normalized to the number of viable CFSE-positive spleen CD4 T-cells co-cultured with uninfected effectors in the presence of AZT, as depicted by (*). Error bars represent standard error of the mean for three experiments performed with three different spleen and tonsil donors.
Human tonsil or splenic tissues from routine tonsillectomies were obtained from the National Disease Research Interchange and the Cooperative Human Tissue Network and processed as previously described (Jekle et al., 2003, J Virol 77:5846-5854). In brief, tonsils or spleen were minced, passed through a 40-μm cell strainer, and cultured in 96-well U-bottomed polystyrene plates (2×10^6 cells/well) in medium (200 μl/well) consisting of RPMI 1640 supplemented with 15% heat-inactivated fetal bovine serum, 100 μg/ml gentamicin, 200 μg/ml ampicillin, 1 mM sodium pyruvate, 1% nonessential amino acids (Mediatech), 2 mM L-glutamine, and 1% fungizone (Invitrogen). All HIV-1 infections were carried out with 20-50 ng of HIV-1 p24^gag. Cells were incubated with the virus for 12-16 h, washed extensively, and supplemented with fresh medium. After day 5, infections were monitored by measuring p24gag levels in the culture medium using a FLAQ assay (Hayden et al., 2003, AIDS 17:629-631). Infected and uninfected cultures were manipulated as described for individual experiments. In “indirect killing” assays, unless otherwise stated, drugs were used at the following concentrations: 5 μM AZT; 250 nM AMD3100; 10 μg/ml T20; 100 nM Efavirenz; 1 μM Nevirapine; 30 μM Raltegravir; 60 μM 118-D-24; 5 μM Amprenavir; 5 μM Saquinavir; 5 μM Indinavir. CFSE-labeled cells were activated with PHA (5 μg/ml) and IL-2 (20 ng/ml) 2 days before mixing with effector cells.
Uninfected cells (5×10^6/ml) were labeled with 1 μM CFSE (Molecular Probes C1157), treated with 5 μM AZT for 24 h, and co-cultured with effector cells. CFSE readily diffuses into cells, where intracellular esterases cleave the acetate groups, converting it to a fluorescent, membrane-impermeable dye. […] To quantify indirect killing, mixed (CFSE-labeled+effector) cultures were washed in FACS buffer (PBS supplemented with 2 mM EDTA and 2% fetal bovine serum), stained with PE-conjugated anti-CD4, PerCP-conjugated anti-CD19, and APC-conjugated anti-CD8 (all from BD Pharmingen) and fixed in 1% paraformaldehyde. To determine the absolute numbers of the viable CFSE-labeled cells, a standard number of fluorescent beads (Flow-Count Fluorospheres, Beckman Coulter) was added to each cell-suspension sample before data acquisition. Data were collected on a FACS Calibur (BD Biosciences) and analyzed with Flowjo software (Treestar). The level of indirect killing was defined by sequential gating beginning with forward scatter versus side scatter to select live lymphocytes, subgating on the CFSE-positive population, and calculating the numbers of CD4 or CD8 T or B cells, divided by the number of fluorescent beads acquired.

HLAC CD4 T-cells = assay: HLAC cells overlaid on virus-producing 293T-cells, CD4 T-cell depletion; assay type: cell-based, human; conditions: 24 hours co-culture
Method: HLACs were infected with viruses derived from the indicated HIV proviral clones in the presence of the indicated concentrations of AZT or in the absence of drugs. Six days after infection the amount of p24^gag in the medium was determined by FLAQ assay. The amount of p24^gag in the medium after infection wash (day 0) was defined as 0%. […] Viral incorporation of endogenous A3G was measured by immunoblot analysis of purified NL4-3 and Δvif NL4-3 virions harvested from 1 ml of supernatant from infected HLACs. Doses reflect 1:10 dilutions. […] Resting or activated CFSE-labeled cells were co-cultured with cells infected with WT or Δvif NL4-3 in the presence or absence of the following drugs, AZT (5 μM), AMD3100 (250 nM), the NNRTIs Efavirenz (100 nM), and Nevirapine (1 μM), or the integration inhibitors Raltegravir (30 μM) and 118-D-24 (60 μM). Data are representative of four independent experiments performed with cells from four different donors. (E) A method to assess indirect killing in HLAC with non-infectious HIV-1 clones. Fresh human tonsil is processed into HLAC and cells are cultured in suspension. At the same time 293T-cells are transfected with 1 μg HIV-1 DNA in a 24-well plate. After 12 hours, 293T-cells are washed and overlayed with 3×10^6 HLAC cells in RPMI in the presence of the indicated drugs. Virus-producing 293T-cells directly interact with target overlaying HLAC cells. After 24 hours, the HLAC suspensions are collected from wells and analyzed by flow cytometry. […] HLAC were cultured with the indicated drugs 3 hours before co-culture with 293T-cells. Percentages are normalized to the number of viable CD4 T-cells in HLAC overlaying non-transfected 293T-cells in the presence of AZT, as depicted by (*). Error bars represent standard error of the mean of three experiments performed using cells from three different HLAC donors.

IL-1β = assay: Maturation and secretion of IL-1β in abortively infected tonsillar CD4 T-cells (Western blot); assay type: cell-based, human; conditions: AZT 5 μM, AMD3100 250 nM, efavirenz 100 nM
Method: For assessing the processing and secretion of IL-1β in abortively infected CD4 T-cells, CD4 T-cells were isolated from HLACs as described above, and were spinoculated with or without NL4-3 with the indicated drugs as describes above in vi (Spinoculation) and in FIG. 7B. For intracellular protein analysis, cells were lysed 72 hours after spinoculation in RIPA buffer (150 mM NaCl, 1% Nonidet P-40 (vol/vol), 0.5% […] (vol/vol), 0.1% SDS (vol/vol), 50 mM Tris-HCl (pH 8), 1 mM DTT), and EDTA-free Protease Inhibitor (Roche Applied Science, Cat. #04 693 132 001). For analysis of secreted IL-1β, supernatants (200 μl/1 million cells) from the rest of the CD4 T-cells were collected five days after spinoculation and analyzed using Western blot. For Western blots we used the Bio-Rad Criterion 15% pre-cast Tris-HCl gels. Primary antibodies used were 1/1000 of the mouse monoclonal anti-human IL-1β (R&D Systems, Cat. # MAB201) and 1/10000 of the mouse monoclonal anti-β-Actin (Sigma, Cat. # A5316).

| SMILES | loss of CFSE-labeled spleen CD4 T-cells [1] | loss of HLAC CD4 T-cells over NL4-3-transfected 293T-cells (HLAC CD4 T-cells) | maturation and release of bioactive 17 kDa IL-1β after NL4-3 infection (IL-1β) | loss of resting CFSE-labeled spleen CD4 T-cells [1] |
| --- | --- | --- | --- | --- |
| c1cc(CN2CCCNCCNCCCNCC2)ccc1CN1CCCNCCNCCCNCC1 [AMD3100] | prevented the loss of CD4 T-cells as efficiently as AMD3100 | completely blocked | completely prevented; also recorded: blocked | – |
| Cc1cn([C@H]2C[C@H](N=[N+]=[N-])[C@@H](CO)O2)c(=O)[nH]c1=O [AZT] | robust in the absence of drugs or in the presence of AZT | occurred both in the presence and absence of AZT | similarly resulted in maturation and release of the bioactive 17 kDa IL-1β; also recorded: also resulted in release of bioactive 17-kDa IL-1β | massively depleted |
| O=C1Nc2ccc(Cl)cc2[C@@](C#CC2CC2)(C(F)(F)F)O1 [efavirenz] | prevented the loss of CD4 T-cells as efficiently as AMD3100 | completely blocked | completely prevented; also recorded: blocked | prevented this loss of CD4 T-cells |
